Data reported in PMC12348863 (Molecules, 2025).

Columns and labels:
[1] = Water solubility analysis (dissolved CBD in deionised water, HPLC); type: physicochemical
Description: The prepared CBD-GA complexes, in various molar ratios, were tested for water solubility. In a typical experiment, between 1.0 and 1.5 mg of the complex was accurately weighed and dissolved in 1 mL of deionised water (Merck Millipore, Burlington, MA, USA) under vigorous mixing. If necessary, an ultrasonic bath was employed to aid dissolution.
Following mixing, the solution was centrifuged for 3 min at 3000× g. The resulting supernatant was transferred to vials for HPLC analysis. The concentration of dissolved CBD was quantified using a chromatographic method with an Agilent 1260 Infinity HPLC system (Waldbronn, Germany). Further details are provided in Appendix A.4.
The concentration of CBD in dissolution and permeation test samples was assayed using an Agilent 1260 Infinity system with UV detection. The column in use was Luna C18(2) (Phenomenex, Torrance, CA, USA), with dimensions 150 mm × 3 mm, 3 µm particle size. The column flow rate was 0.8 mL/min at 37 °C. The elution was isocratic, with the mobile phase consisting of acetonitrile–water at a ratio of 31:9 (v/v), with 10 mM ammonium formate and 0.1% (v/v) formic acid added (without pH adjustment). The injection volume was 5 µL, and the run time was 5 min. The UV detector wavelength was set at 275 nm.

[2] = In vitro permeation (PAMPA) test; type: in vitro ADME; conditions: 159 µM CBD
Description: In vitro permeation (PAMPA) tests were performed to evaluate differences in permeation parameters between regular (lipophilic) CBD and the water-soluble CBD complex. Atenolol and metoprolol were included as control substances. The initial concentration of CBD in the donor medium was 159 µM, while the concentrations of atenolol and metoprolol were 500 µM each. The experiments were conducted using a 96-well PAMPA plate with PVDF filter membranes (Sigma-Aldrich). The donor medium consisted of 50 mM phosphate buffer (pH 6.5, Sigma-Aldrich) containing 5% (v/v) DMSO, with a volume of 300 µL per well. The acceptor medium used was Pion’s “acceptor sink buffer” (Billerica, MA, USA), added in a volume of 200 µL per well. The artificial membrane solution consisted of 1% (w/v) cholesterol (Merck, Darmstadt, Germany) dissolved in a 3:1 (v/v) mixture of dodecane and n-hexane. Prior to the experiment, 4 µL of this membrane solution was applied to each filter membrane. Each test compound was assessed in 12 replicates. The total duration of the experiment was 260 min. […] At the end of this experiment, both donor and acceptor solutions were analysed by HPLC. CBD concentrations were determined using HPLC with UV detection, according to the method described by Križman [39] […] Atenolol and metoprolol concentrations were analysed by HPLC with FL detection, following the protocol of Yilmaz et al. [40] […]

[3] = unformulated CBD; cited from earlier work

C=C(C)[C@@H]1CCC(C)=C[C@H]1c1c(O)cc(CCCCC)cc1O [pure CBD, Cannabidiol]
solubility ([1]; deionised water, supernatant after centrifugation, HPLC, read-out: CBD Concentration (water solubility)): < 0.06 µg/mL | aqueous solubility, times lower than that of the water-soluble CBD complex ([1]; unformulated CBD versus water-soluble CBD complex): more than 400 times | Papp at 260 min, 159 µM ([2]; donor 50 mM phosphate buffer pH 6.5 with 5% DMSO, 12 replicates, read-out: average permeability): 1.98 ×10⁻⁶ cm/s | mass retention in the lipophilic membrane ([2]; donor pH 6.5 with 5% DMSO, 260 min, average): 84% | aqueous solubility [3]: less than 60 ng/mL
